Data on one molecule can be found in patent US6514981B1, “Methods of modulating tyrosine protein kinase function with indolinone compounds” (Sugen, Inc., priority 1998, dated 2003).

Molecules are shown by their SMILES. pIC50: −log10 of the molar value.

One test deals with T1, IGF-1 receptor (Homo sapiens, UniProt P08069).
T1 construct: expressed in transfected cells; host or cells: 3T3-L1/IGF-1R (also written NIH3T3/IGF-1R)
Put plainly: IGF-1 receptor phosphorylation assay in cells (ELISA). As to conditions: 3T3-L1/IGF-1R cells, IGF-1 stimulation. It counts as cell-based. The procedure:
The following protocol was used to measure phosphotyrosine level on IGF-1 receptor, which indicates IGF-1 receptor tyrosine kinase activity.
a. The cell line used in this assay is 3T3-L1/IGF-1R, a cell line genetically engineered to overexpresses IGF-1 receptor.
2. Resuspend the cells in fresh DMEM+10% FBS+2mM L-Glutamine, and transfer to 96-well tissue culture plate (Corning, 250806-96) at 20,000 cells/well (100 μL/well). Incubate for 1 day then replace medium to serum-free medium (90/μL) and incubate in 5% CO2 and 37° C. overnight.
1. Coat the ELISA plate (Corning 25805-96) with Anti-IGF-1R Antibody at 0.5 μg/well in 100 μL PBS at least 2 hours.
2. Dilute drug stock (in 100% DMSO) 1:10 with DMEM in 96-well poly-propylene plate, and transfer 10 μL/well of this solution to the cells to achieve final drug dilution 1:100, and final DMSO concentration of 1.0%. Incubate the cells in 5% C02 at 37° C. for 2 hours.
4. After drug incubation for two hours, transfer 10 μL/well of 200 nM IGF-1 Ligand m PBS to the cells (Final Conc.=20 nM), and incubate at 5% CO2 at 37° C. for 10 minutes.
5. Remove media and add 100 μL/well HNTG* and shake for 10 minutes. Look at cells under microscope to see if they are adequately lysed.
6. […]
The IC50 values measured in the IGF-1 receptor phosphorylation assay for the compound of formula VI are depicted in Table 4: […]

The subject of another test is HUV-EC-C cells. The test can be described thus: HUV-EC-C assay (3H-thymidine), VEGF. The test is classed as cell-based. To be noted: Homo sapiens, 3H-thymidine incorporation, HUVEC. The procedure:
The following protocol may also be used to measure a compound's activity against PDGF-R, FGF-R or Flk-1/KDR, all of which are naturally expressed by HUV-EC cells. 1. Wash and trypsinize HUV-EC-C cells (human umbilical vein endothelial cells, (American Type Culture Collection; catalogue no. 1730 CRL). Wash with Dulbecco's phosphate-buffered saline (D-PBS; obtained from Gibco BRL, catalogue no. 14190-029) 2 times at about 1 mL/10 CM^2 of tissue culture flask. Trypsinize with 0.05% trypsin-EDTA in non-enzymatic cell dissociation solution (Sigma Chemical Company; catalogue no. C-1544). The 0.05% trypsin was made by diluting 0.25% trypsin/1 mM EDTA (Gibco; catalogue no. 25200-049) in the cell dissociation solution. Trypsinize with about 1 mL/25-30 cm^2 of tissue culture flask for about 5 minutes at 37° C. After cells have detached from the flask, add an equal volume of assay medium and transfer to a 50 mL sterile centrifuge tube (Fisher Scientific; catalogue no. 05-539-6). 2. Wash the cells with about 35 mL assay medium in the 50 mL sterile centrifuge tube by adding the assay medium, centrifuge for 10 minutes at approximately 200×g aspirate the supernatant and resuspend with 35 mL D-PBS. Repeat the wash two more times with D-PBS, resuspend the cells in about 1 mL assay medium/15 cm^2 of tissue culture flask. […]

T1 sequence (P08069 31-1367): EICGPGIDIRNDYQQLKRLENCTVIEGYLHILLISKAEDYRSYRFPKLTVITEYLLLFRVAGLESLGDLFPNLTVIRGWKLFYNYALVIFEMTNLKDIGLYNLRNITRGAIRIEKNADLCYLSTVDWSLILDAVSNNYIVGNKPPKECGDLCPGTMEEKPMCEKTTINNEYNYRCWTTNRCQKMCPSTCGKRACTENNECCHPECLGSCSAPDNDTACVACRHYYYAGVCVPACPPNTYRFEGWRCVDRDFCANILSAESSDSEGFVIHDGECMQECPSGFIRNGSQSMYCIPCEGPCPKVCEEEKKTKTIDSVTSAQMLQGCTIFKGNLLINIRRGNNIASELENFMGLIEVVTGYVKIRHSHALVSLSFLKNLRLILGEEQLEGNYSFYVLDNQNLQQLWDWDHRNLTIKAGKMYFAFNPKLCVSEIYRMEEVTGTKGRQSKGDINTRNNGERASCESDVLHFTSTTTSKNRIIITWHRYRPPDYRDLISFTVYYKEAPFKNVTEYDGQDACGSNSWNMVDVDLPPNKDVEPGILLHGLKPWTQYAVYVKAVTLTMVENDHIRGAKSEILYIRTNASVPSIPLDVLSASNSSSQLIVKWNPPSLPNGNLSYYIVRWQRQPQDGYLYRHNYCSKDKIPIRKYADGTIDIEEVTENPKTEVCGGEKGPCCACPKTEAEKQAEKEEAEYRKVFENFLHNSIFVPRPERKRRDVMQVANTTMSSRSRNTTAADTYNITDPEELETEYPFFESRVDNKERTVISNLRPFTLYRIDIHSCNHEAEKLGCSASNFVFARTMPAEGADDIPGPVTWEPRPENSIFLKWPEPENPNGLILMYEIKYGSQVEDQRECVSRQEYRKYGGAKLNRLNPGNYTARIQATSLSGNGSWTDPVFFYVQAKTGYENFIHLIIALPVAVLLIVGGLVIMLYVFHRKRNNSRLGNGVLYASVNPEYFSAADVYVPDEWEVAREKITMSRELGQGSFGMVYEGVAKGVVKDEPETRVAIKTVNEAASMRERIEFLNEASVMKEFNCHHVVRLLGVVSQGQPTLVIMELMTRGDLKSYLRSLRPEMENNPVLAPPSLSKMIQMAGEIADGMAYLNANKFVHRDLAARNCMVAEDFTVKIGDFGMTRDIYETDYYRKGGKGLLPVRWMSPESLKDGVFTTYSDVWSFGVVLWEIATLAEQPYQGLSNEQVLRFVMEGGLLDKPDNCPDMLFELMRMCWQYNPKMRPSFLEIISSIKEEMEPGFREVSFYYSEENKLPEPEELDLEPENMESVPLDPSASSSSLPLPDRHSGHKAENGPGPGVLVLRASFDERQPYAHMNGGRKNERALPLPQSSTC

For `Cc1cc(/C=C2/C(=O)Nc3ccccc32)c(C)c2c1[nH]c1ccccc12` [VI], the pIC50 at IGF-1 receptor was 5.07. The same molecule yielded an IC50 in the test with HUV-EC-C cells of 0.68 µM.
